Data reported in patent US20250122191A1, “COMPOUNDS AS BCL-2 INHIBITORS” (Fochon Biosciences, Ltd, priority 2021, published 2025).

Legend:
Format in all cases: cell-based
RS4;11-BCL-2 G101V cells = experiment: Cell proliferation assay (MTS), RS4;11-BCL-2 G101V engineered cells; settings: Homo sapiens, 120 h, read-out: RS4, 11 BCL2-G101V IC50
Procedure, shortened: (§1)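 RS4;11 cells stably overexpressing mutant BCL-2 were seeded and pre-incubated 4 h (G101V, F104L) or 24 h (D103E, D103Y), then exposed to compound at 1.5–10000 nM for 120 h (G101V, F104L) or 72 h (D103E, D103Y) at 37 °C. Viability was read by MTS absorbance at 490 nm after 2 h; IC50 fitted.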

RS4;11-BCL-2 D103E cells = experiment: Cell proliferation assay (MTS), RS4;11-BCL-2 D103E engineered cells; settings: Homo sapiens, 72 h, read-out: RS4, 11 BCL2-D103E IC50
Procedure, shortened: as §1

RS4;11-BCL-2 F104L cells = experiment: Cell proliferation assay (MTS), RS4;11-BCL-2 F104L engineered cells; settings: Homo sapiens, 120 h, read-out: RS4, 11 BCL2-F104L IC50
Procedure, shortened: as §1

Toledo cells = experiment: Cell proliferation assay (MTS), Toledo cells; settings: Homo sapiens, 72 h
Procedure, shortened: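 Toledo cells (RPMI-1640, 10% FBS) seeded at 30000 cells/well, rested 4 h, then exposed 72 h at 37 °C, 5% CO2 to compound at nine final concentrations, 1.5–10000 nM. Viability by MTS (2 h), absorbance at 490 nm. IC50 from the concentration-response.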

Row | IC50 (RS4;11-BCL-2 G101V cells) [nM] | IC50 (RS4;11-BCL-2 D103E cells) [nM] | IC50 (RS4;11-BCL-2 F104L cells) [nM] | Compound | IC50 (Toledo cells) [nM]
1 | 1 | 1 | 1 | COc1cc(CN2CCN(C3CC4(CCN(c5ccc(C(=O)NS(=O)(=O)c6cnc(NC[C@H]7CC[C@](C)(O)CC7)c([N+](=O)[O-])c6)c(Oc6cc7c(F)c[nH]c7nc6OC)c5)CC4)C3)[C@H](c3ccccc3C(C)C)C2)cc(Cl)n1 [Example 54, 4-(2-((R)-4-((2-chloro-6-methoxypyridin-4-yl)methyl)-2-(2-isopropylphenyl)piperazin-1-yl)-7-azaspiro [3.5]nonan-7-yl)-2-((3-fluoro-6-methoxy-1H-pyrrolo[2,3-b]pyridin-5-yl)oxy)-N-((6-((((1r,4r)-4-hydroxy-4-methylcyclohexyl)methyl)amino)-5-nitropyridin-3-yl)sulfonyl)benzamide] | 
2 | 1 | 1 | 1 | COc1cc(CN2CCN(C3CC4(CCN(c5ccc(C(=O)NS(=O)(=O)c6cnc(NC[C@H]7CC[C@](C)(O)CC7)c([N+](=O)[O-])c6)c(Oc6cc7c(F)c[nH]c7nc6OC)c5)CC4)C3)[C@H](c3ccccc3C(C)C)C2)cc(OC)n1 [Example 62, 4-(2-((R)-4-((2,6-dimethoxypyridin-4-yl)methyl)-2-(2-isopropylphenyl)piperazin-1-yl)-7-azaspiro[3.5]nonan-7-yl)-2-((3-fluoro-6-methoxy-1H-pyrrolo[2,3-b]pyridin-5-yl)oxy)-N-((6-((((1r,4r)-4-hydroxy-4-methylcyclohexyl)methyl)amino)-5-nitropyridin-3-yl)sulfonyl)benzamide] | 
3 | 1 | 1 | 3 | COc1nc2[nH]cc(F)c2cc1Oc1cc(N2CCC3(CC2)CC(N2CCN(Cc4ccnc(OCCO)c4)C[C@H]2c2ccccc2C(C)C)C3)ccc1C(=O)NS(=O)(=O)c1cnc(NC[C@H]2CC[C@](C)(O)CC2)c([N+](=O)[O-])c1 [Example 64, 2-((3-fluoro-6-methoxy-1H-pyrrolo[2,3-b]pyridin-5-yl)oxy)-N-((6-((((1r,4r)-4-hydroxy-4-methylcyclohexyl)methyl)amino)-5-nitropyridin-3-yl)sulfonyl)-4-(2-((R)-4-((2-(2-hydroxyethoxy)pyridin-4-yl)methyl)-2-(2-isopropylphenyl)piperazin-1-yl)-7-azaspiro[3.5]nonan-7-yl)benzamide] | 
4 | 1 | 1 | 1 | COc1ccc(CN2CCN(C3CC4(CCN(c5ccc(C(=O)NS(=O)(=O)c6cnc(NC[C@H]7CC[C@](C)(O)CC7)c([N+](=O)[O-])c6)c(Oc6cnc7[nH]cc(F)c7c6)c5)CC4)C3)[C@H](c3ccccc3C(C)C)C2)cc1 [Example 71, 2-((3-fluoro-1H-pyrrolo[2,3-b]pyridin-5-yl)oxy)-N-((6-((((1r,4r)-4-hydroxy-4-methylcyclohexyl)methyl)amino)-5-nitropyridin-3-yl)sulfonyl)-4-(2-((R)-2-(2-isopropylphenyl)-4-(4-methoxybenzyl)piperazin-1-yl)-7-azaspiro[3.5]nonan-7-yl)benzamide] | 1
5 | 1 | 1 | 1 | COc1nc2[nH]cc(F)c2cc1Oc1cc(N2CCC3(CC2)CC(N2CCN(C(C)C)C[C@H]2c2ccccc2C(C)C)C3)ccc1C(=O)NS(=O)(=O)c1cnc(NC[C@H]2CC[C@](C)(O)CC2)c([N+](=O)[O-])c1 [Example 99, 2-((3-fluoro-6-methoxy-1H-pyrrolo[2,3-b]pyridin-5-yl)oxy)-N-((6-((((1r,4r)-4-hydroxy-4-methylcyclohexyl)methyl)amino)-5-nitropyridin-3-yl)sulfonyl)-4-(2-((R)-4-isopropyl-2-(2-isopropylphenyl)piperazin-1-yl)-7-azaspiro[3.5]nonan-7-yl)benzamide] | 
6 | 1 | 1 | 1 | CC(C)c1ccccc1[C@@H]1CN(Cc2ccc(C#N)cc2)CCN1C1CC2(CCN(c3ccc(C(=O)NS(=O)(=O)c4cnc(NC[C@H]5CC[C@](C)(O)CC5)c([N+](=O)[O-])c4)c(Oc4cnc5[nH]cc(F)c5c4)c3)CC2)C1 [Example 237, 4-(2-((R)-4-(4-cyanobenzyl)-2-(2-isopropylphenyl)piperazin-1-yl)-7-azaspiro[3.5]nonan-7-yl)-2-((3-fluoro-1H-pyrrolo[2,3-b]pyridin-5-yl)oxy)-N-((6-((((1r,4r)-4-hydroxy-4-methylcyclohexyl)methyl)amino)-5-nitropyridin-3-yl)sulfonyl)benzamide] | 1
7 | 1 | 3 | 1 | CC(C)c1ccccc1[C@@H]1CN(Cc2ccncc2)CCN1C1CC2(CCN(c3ccc(C(=O)NS(=O)(=O)c4cnc(NC[C@H]5CC[C@](C)(O)CC5)c([N+](=O)[O-])c4)c(Oc4cnc5[nH]cc(F)c5c4)c3)CC2)C1 [Example 240, 2-((3-fluoro-1H-pyrrolo[2,3-b]pyridin-5-yl)oxy)-N-((6-((((1r,4r)-4-hydroxy-4-methylcyclohexyl)methyl)amino)-5-nitropyridin-3-yl)sulfonyl)-4-(2-((R)-2-(2-isopropylphenyl)-4-(pyridin-4-ylmethyl)piperazin-1-yl)-7-azaspiro[3.5]nonan-7-yl)benzamide] | 1
8 | 1 | 1 | 1 | COc1nc2[nH]cc(F)c2cc1Oc1cc(N2CCC3(CC2)CC(N2CCN(Cc4ccc(OC)c5oc(C)nc45)C[C@H]2c2ccccc2C(C)C)C3)ccc1C(=O)NS(=O)(=O)c1cnc(NC[C@H]2CC[C@](C)(O)CC2)c([N+](=O)[O-])c1 [Example 245, 2-((3-fluoro-6-methoxy-1H-pyrrolo[2,3-b]pyridin-5-yl)oxy)-N-((6-((((1r,4r)-4-hydroxy-4-methylcyclohexyl)methyl)amino)-5-nitropyridin-3-yl)sulfonyl)-4-(2-((R)-2-(2-isopropylphenyl)-4-((7-methoxy-2-methylbenzo[d]oxazol-4-yl)methyl)piperazin-1-yl)-7-azaspiro[3.5]nonan-7-yl)benzamide] | 1
9 |  | 1 | 1 | COc1nc(CN2CCN(C3CC4(CCN(c5ccc(C(=O)NS(=O)(=O)c6cnc(NC[C@H]7CC[C@](C)(O)CC7)c([N+](=O)[O-])c6)c(Oc6cnc7[nH]cc(F)c7c6)c5)CC4)C3)[C@H](c3ccccc3C(C)C)C2)ccc1C1CC1 [Example 291, 4-(2-((R)-4-((5-cyclopropyl-6-methoxypyridin-2-yl)methyl)-2-(2-isopropylphenyl)piperazin-1-yl)-7-azaspiro[3.5]nonan-7-yl)-2-((3-fluoro-1H-pyrrolo[2,3-b]pyridin-5-yl)oxy)-N-((6-((((1r,4r)-4-hydroxy-4-methylcyclohexyl)methyl)amino)-5-nitropyridin-3-yl)sulfonyl)benzamide] | 1
10 | 1 | 1 | 1 | CC(C)c1ccccc1[C@@H]1CN(Cc2ccc3c(c2)CCO3)CCN1C1CC2(CCN(c3ccc(C(=O)NS(=O)(=O)c4cnc(NC[C@H]5CC[C@](C)(O)CC5)c([N+](=O)[O-])c4)c(Oc4cnc5[nH]cc(F)c5c4)c3)CC2)C1 [Example 324, 4-(2-((R)-4-((2,3-dihydrobenzofuran-5-yl)methyl)-2-(2-isopropylphenyl)piperazin-1-yl)-7-azaspiro[3.5]nonan-7-yl)-2-((3-fluoro-1H-pyrrolo[2,3-b]pyridin-5-yl)oxy)-N-((6-((((1r,4r)-4-hydroxy-4-methylcyclohexyl)methyl)amino)-5-nitropyridin-3-yl)sulfonyl)benzamide] | 1
11 |  | 1 | 1 | COc1nc2[nH]cc(F)c2cc1Oc1cc(N2CCC3(CC2)CC(N2CCN(Cc4ccc(S(C)(=O)=O)cc4)C[C@H]2c2ccccc2C(C)C)C3)ccc1C(=O)NS(=O)(=O)c1cnc(NC[C@H]2CC[C@](C)(O)CC2)c([N+](=O)[O-])c1 [Example 327, 2-((3-fluoro-6-methoxy-1H-pyrrolo[2,3-b]pyridin-5-yl)oxy)-N-((6-((((1r,4r)-4-hydroxy-4-methylcyclohexyl)methyl)amino)-5-nitropyridin-3-yl)sulfonyl)-4-(2-((R)-2-(2-isopropylphenyl)-4-(4-(methylsulfonyl)benzyl)piperazin-1-yl)-7-azaspiro[3.5]nonan-7-yl)benzamide] | 1
12 | 1 | 1 | 1 | COc1nc2[nH]cc(F)c2cc1Oc1cc(N2CCC3(CC2)CC(N2CCN(C[C@@H]4COCCO4)C[C@H]2c2ccccc2C(C)C)C3)ccc1C(=O)NS(=O)(=O)c1cnc(NC[C@H]2CC[C@](C)(O)CC2)c([N+](=O)[O-])c1 [Example 334, 4-(2-((R)-4-(((R)-1,4-dioxan-2-yl)methyl)-2-(2-isopropylphenyl)piperazin-1-yl)-7-azaspiro[3.5]nonan-7-yl)-2-((3-fluoro-6-methoxy-1H-pyrrolo[2,3-b]pyridin-5-yl)oxy)-N-((6-((((1r,4r)-4-hydroxy-4-methylcyclohexyl)methyl)amino)-5-nitropyridin-3-yl)sulfonyl)benzamide] | 1
